# According to patent publication US6365590B1, “Compounds, compositions and methods for treating erectile dysfunction” (Saint Louis University, priority 1998, dated 2002):
# Where a name gives a salt, the structure may show the parent alone.
# Tests used:
# [1] = tested on: sperm; conditions: cited from earlier work
# [2] = pH of a 10 mM aqueous solution of the compound; format: physicochemical; conditions: 22° C.
# [3] = concentrations up to 20%; cited from earlier work
SMILES,effect on the viability of sperm [1],pH of a 10 mM aqueous solution [2],other results
COc1cc2nc(N3CCN(C(=O)c4ccco4)CC3)nc(N)c2cc1OC [prazosin hydrochloride],no effect,–,–
CCCCC[C@H](O)/C=C/[C@H]1[C@H](O)CC(=O)[C@@H]1CCCCCCC(=O)O.CCN(CC)CC(=O)Nc1c(C)cccc1C [lidocaine alprostadilate],–,6.29-6.36,–
CCCCC[C@H](O)/C=C/[C@H]1[C@H](O)CC(=O)[C@@H]1CCCCCCC(=O)O [alprostadil],no effect,–,–
COc1ccc(Cc2nccc3cc(OC)c(OC)cc23)cc1OC [papaverine],–,–,effectiveness as a topical agent in erectile dysfunction [3]: not sufficiently effective for clinical use
CCCCCC(O)C=CC1C(O)CC(=O)C1CCCCCCC(=O)O.COc1cc2nc(N3CCN(C(=O)c4ccco4)CC3)nc(N)c2cc1OC [prazosin alprostadilate],–,6.32-6.38,–
